Assay results taken from patent US20260137662A1, “CD11B AGONISTS FOR TREATMENT OF AUTOIMMUNE DISEASE” (Rush University Medical Center, priority 2022, published 2026).

System: BMDMs from C57BL/6 mice expressing CD11b with a point mutation (KI)
Assay: Biomarker secretion from IMQ-treated bone marrow derived macrophages of CD11b KI mice
Type: cell-based
Conditions: KI cells (genetically activated CD11b), IMQ (20 ug/mL) and LA1 (20 uM) co-treatment, 4 hours
Method: FIG. 7A illustrates levels of biomarker IL-6 secretion in bone marrow derived macrophages (BMDMs) from C57BL/6 wild type (WT) mice, mice with global deletion of CD11b (KO), or C57BL/6 mice expressing CD11b with a point mutation (KI), the macrophages treated for 4 hours with vehicle DMSO (UT), LA1 (20 uM), IMQ (20 ug/mL), or IMQ and LA1 co-treatment. Bars show mean with SD (N=3) (*P<0.05, **P<0.01, ***P<0.001, ****P<0.0001).
FIG. 7B illustrates levels of biomarker IL-1b secretion in bone marrow derived macrophages (BMDMs) from C57BL/6 wild type (WT) mice, mice with global deletion of CD11b (KO), or C57BL/6 mice expressing CD11b with a point mutation (KI), the macrophages treated for 4 hours with vehicle DMSO (UT), LA1 (20 uM), IMQ (20 ug/mL), or IMQ and LA1 co-treatment. Bars show mean with SD (N=3) (*P<0.05, **P<0.01, ***P<0.001, ****P<0.0001).
FIG. 7C illustrates levels of biomarker suPAR secretion in bone marrow derived macrophages (BMDMs) from C57BL/6 wild type (WT) mice, mice with global deletion of CD11b (KO), or C57BL/6 mice expressing CD11b with a point mutation (KI), the macrophages treated for 4 hours with vehicle DMSO (UT), LA1 (20 uM), IMQ (20 ug/mL), or IMQ and LA1 co-treatment. Bars show mean with SD (N=3) (*P<0.05, **P<0.01, ***P<0.001, ****P<0.0001).
FIG. 7D illustrates levels of biomarker IFNb secretion in bone marrow derived macrophages (BMDMs) from C57BL/6 wild type (WT) mice, mice with global deletion of CD11b (KO), or C57BL/6 mice expressing CD11b with a point mutation (KI), the macrophages treated for 4 hours with vehicle DMSO (UT), LA1 (20 uM), IMQ (20 ug/mL), or IMQ and LA1 co-treatment. Bars show mean with SD (N=3) (*P<0.05, **P<0.01, ***P<0.001, ****P<0.0001).
Bone marrow derived macrophages (BMDMs) from C57BL/6 wild type mice (WT), mice with global deletion of CD11b (KO), and C57BL/6 mice expressing CD11b with a point mutation (KI), as described previously (Martinez et al., 2020) were used to evaluate the effect of pharmacologic activation of CD11b by LA1 or genetic activation of CD11b on TLR-pathway dependent biomarkers. BMDMs from WT, KO, and KI mice were left untreated, treated with LA1, treated with IMQ, or co-treated with LA1 and IMQ and levels of biomarkers IL-1b, suPAR, IL-6 and IFN-b were measured 4 hours after treatment.

O=C(O)c1ccc(-c2ccc(/C=C3\SC(=S)N(Cc4ccccc4)C3=O)o2)cc1 [LA1, (Z)-4-(5-((3-benzyl-4-oxo-2-thioxothiazolidin-5-ylidene)methyl)furan-2-yl)benzoic acid]
did not change basal levels: level of IFN-b in cell supernatant | level of IL-1b in cell supernatant | level of IL-6 in cell supernatant | level of suPAR in cell supernatant
